# From US11767310B2, “Nicotinamide RIPK1 inhibitors” (AbbVie Inc., priority 2021, dated 2023)
# Where two headings read alike, the source gives them in different places.
# Key:
# Assay in all cases: Kinase binding screen
# Settings in all cases: read-out: Percent Control at 100 nM Compound Concentration
# GRK3 = GRK3 (Homo sapiens (Human), UniProt P35626)
# ADCK3 = ADCK3 (Homo sapiens (Human), UniProt Q8NI60)
# MARK3 = MARK3 (Homo sapiens (Human), UniProt P27448)
# CLK3 = CLK3 (Homo sapiens (Human), UniProt P49761)
# IKK-alpha = IKK-alpha (Homo sapiens (Human), UniProt O15111)
# Chain of IKK-alpha (O15111 whole entry): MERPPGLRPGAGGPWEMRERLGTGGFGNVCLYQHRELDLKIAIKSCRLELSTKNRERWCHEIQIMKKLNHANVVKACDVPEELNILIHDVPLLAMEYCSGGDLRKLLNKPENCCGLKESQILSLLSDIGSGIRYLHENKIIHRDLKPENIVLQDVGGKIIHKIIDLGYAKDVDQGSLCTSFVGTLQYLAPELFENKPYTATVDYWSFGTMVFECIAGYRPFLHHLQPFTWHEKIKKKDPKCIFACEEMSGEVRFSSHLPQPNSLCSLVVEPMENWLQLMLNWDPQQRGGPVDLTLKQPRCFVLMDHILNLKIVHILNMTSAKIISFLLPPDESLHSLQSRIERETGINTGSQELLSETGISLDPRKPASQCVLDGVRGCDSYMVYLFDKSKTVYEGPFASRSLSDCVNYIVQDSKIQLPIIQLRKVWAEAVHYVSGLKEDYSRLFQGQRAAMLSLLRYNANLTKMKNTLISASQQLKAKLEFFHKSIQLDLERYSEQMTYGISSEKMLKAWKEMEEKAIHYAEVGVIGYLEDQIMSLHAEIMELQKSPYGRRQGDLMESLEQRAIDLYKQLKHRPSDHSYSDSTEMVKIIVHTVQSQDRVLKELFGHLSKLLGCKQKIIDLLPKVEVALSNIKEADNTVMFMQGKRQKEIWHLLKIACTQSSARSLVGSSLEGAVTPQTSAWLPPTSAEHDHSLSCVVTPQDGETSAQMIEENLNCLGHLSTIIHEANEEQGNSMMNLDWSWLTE
# PFCDPK1(P.falciparum) = PFCDPK1(P.falciparum) (Plasmodium falciparum (isolate 3D7), UniProt P62344)
# Source text: (§1) The screening method uses an immobilized ligand on a solid support, a DNA-tagged kinase, and a test compound. Test compounds that bind the kinase active site and directly (sterically) or indirectly (allosterically) prevent kinase binding to an immobilized ligand on a solid support will reduce the amount of kinase captured on the solid support. […] Screening “hits” are identified by measuring the amount of kinase captured in test compound versus control samples by using a quantitative, precise and ultra-sensitive qPCR method that detects the DNA label associated with the kinase. In a similar manner, dissociation constants (Kd) for test compound-kinase interactions are calculated by measuring the amount of kinase captured on the solid support as a function of the test compound concentration.
# (§2) For most assays, kinase-tagged T7 phage strains were grown in parallel in 24-well blocks in an E. coli host derived from the BL21 strain. E. coli were grown to log-phase and infected with T7 phage from a frozen stock (multiplicity of infection=0.4) and incubated with shaking at 32° C. until lysis (90-150 minutes). The lysates were centrifuged (6,000×g) and filtered ([…]) to remove cell debris. The remaining kinases were produced in HEK-293 cells and subsequently tagged with DNA for qPCR detection. Streptavidin-coated magnetic beads were treated with biotinylated small molecule ligands for 30 minutes at room temperature to generate affinity resins for kinase assays. The liganded beads were blocked with excess biotin and washed with blocking buffer (SeaBlock (Pierce), 1% BSA, 0.05% Tween 20, 1 mM DTT) to remove unbound ligand and to reduce non-specific phage binding. […] Test compounds were prepared as 40× stocks in 100% DMSO and directly diluted into the assay. All reactions were performed in polypropylene 384-well plates in a final volume of 0.02 mL. […] The kinase concentration in the eluates was measured by qPCR.
# (§3) The compounds were screened at 100 nM concentration, and results for the binding interactions are shown below in Table D as percent control, where lower numbers indicate stronger hits. The calculation for percent control is shown below. The negative control was DMSO (100% control), and a control compound was used as positive control (0% control).
# CDC2L5 = CDC2L5 (Homo sapiens (Human), UniProt Q14004)
# Chain of CDC2L5 (Q14004 whole entry, looked up): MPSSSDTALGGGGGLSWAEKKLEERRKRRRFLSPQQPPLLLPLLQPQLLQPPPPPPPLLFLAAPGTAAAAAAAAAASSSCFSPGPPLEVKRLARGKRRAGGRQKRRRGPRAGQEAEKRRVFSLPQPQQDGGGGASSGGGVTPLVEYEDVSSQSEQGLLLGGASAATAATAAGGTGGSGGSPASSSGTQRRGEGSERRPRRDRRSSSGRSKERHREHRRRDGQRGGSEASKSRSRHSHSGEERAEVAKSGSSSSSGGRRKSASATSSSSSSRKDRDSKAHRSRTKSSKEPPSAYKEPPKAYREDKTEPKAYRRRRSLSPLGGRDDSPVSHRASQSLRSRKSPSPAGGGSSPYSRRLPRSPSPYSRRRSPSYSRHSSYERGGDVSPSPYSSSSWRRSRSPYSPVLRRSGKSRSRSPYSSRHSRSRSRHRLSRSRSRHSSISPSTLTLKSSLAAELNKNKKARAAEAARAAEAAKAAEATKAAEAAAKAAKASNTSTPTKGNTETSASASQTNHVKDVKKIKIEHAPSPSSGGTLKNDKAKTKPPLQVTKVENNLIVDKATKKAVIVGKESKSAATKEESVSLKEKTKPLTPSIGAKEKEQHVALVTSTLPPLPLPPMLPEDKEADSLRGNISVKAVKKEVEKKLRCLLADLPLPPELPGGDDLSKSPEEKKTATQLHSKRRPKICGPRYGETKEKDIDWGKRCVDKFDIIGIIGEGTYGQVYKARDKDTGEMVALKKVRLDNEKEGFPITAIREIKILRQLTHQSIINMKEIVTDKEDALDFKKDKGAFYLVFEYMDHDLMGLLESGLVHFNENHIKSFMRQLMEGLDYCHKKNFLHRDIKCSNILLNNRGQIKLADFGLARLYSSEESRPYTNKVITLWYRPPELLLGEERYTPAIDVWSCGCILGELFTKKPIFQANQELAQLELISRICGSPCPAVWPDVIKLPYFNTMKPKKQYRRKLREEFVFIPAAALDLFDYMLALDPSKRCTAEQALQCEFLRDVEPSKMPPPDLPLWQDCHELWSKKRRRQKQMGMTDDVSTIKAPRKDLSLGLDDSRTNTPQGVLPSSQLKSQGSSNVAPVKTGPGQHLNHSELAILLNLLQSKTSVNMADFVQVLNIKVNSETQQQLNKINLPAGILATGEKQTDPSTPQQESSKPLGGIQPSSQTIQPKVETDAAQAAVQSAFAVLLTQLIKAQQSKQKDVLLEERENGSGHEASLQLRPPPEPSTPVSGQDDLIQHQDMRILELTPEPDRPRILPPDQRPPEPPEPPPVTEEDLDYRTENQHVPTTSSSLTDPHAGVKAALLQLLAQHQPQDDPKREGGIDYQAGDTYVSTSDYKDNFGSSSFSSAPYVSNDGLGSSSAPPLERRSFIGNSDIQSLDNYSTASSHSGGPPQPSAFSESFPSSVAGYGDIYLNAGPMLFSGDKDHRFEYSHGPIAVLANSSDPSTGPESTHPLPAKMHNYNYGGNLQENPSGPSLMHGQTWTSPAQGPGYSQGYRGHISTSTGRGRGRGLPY
# Source text: as §1, §2, §3
# PFPK5(P.falciparum) = PFPK5(P.falciparum) (Plasmodium falciparum (isolate 3D7), UniProt P61075)
# Source text: as §1, §2, §3
# PRP4 = PRP4 (Homo sapiens (Human), UniProt Q13523)
# Source text: as §1, §2, §3
# PIK3CA = PIK3CA (Homo sapiens (Human), UniProt P42336)
# IRAK1 = IRAK1 (Homo sapiens (Human), UniProt P51617)
# Chain of IRAK1 (P51617 whole entry): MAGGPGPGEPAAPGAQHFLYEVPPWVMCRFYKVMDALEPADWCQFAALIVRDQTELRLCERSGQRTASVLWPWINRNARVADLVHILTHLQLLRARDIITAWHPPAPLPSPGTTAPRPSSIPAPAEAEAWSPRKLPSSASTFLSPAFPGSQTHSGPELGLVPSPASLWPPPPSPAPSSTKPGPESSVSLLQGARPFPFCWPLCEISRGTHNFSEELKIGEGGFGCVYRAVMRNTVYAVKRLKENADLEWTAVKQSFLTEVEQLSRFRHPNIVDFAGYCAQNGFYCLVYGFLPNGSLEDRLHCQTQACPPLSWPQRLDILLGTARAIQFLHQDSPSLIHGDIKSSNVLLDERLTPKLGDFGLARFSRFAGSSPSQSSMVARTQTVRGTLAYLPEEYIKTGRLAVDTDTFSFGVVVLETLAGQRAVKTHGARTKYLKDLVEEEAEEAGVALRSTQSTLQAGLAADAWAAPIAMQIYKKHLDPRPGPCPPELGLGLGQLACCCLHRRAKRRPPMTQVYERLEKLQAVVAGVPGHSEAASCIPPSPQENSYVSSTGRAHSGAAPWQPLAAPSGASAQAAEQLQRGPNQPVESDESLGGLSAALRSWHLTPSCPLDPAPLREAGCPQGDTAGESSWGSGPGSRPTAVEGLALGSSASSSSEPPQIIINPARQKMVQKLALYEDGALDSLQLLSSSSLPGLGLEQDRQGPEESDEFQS
# MYLK4 = MYLK4 (Homo sapiens (Human), UniProt Q86YV6)
# CDK4-cyclinD3 = CDK4-cyclinD3 (Homo sapiens (Human), UniProt P11802)
# Chain of CDK4-cyclinD3 (P11802 whole entry): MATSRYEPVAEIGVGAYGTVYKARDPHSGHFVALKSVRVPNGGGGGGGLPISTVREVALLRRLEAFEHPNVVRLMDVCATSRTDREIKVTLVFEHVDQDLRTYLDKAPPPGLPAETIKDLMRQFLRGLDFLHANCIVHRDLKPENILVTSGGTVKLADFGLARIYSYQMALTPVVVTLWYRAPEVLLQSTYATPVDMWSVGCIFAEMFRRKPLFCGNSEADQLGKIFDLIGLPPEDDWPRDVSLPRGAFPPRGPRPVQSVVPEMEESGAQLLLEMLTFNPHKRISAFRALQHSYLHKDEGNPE
# Chain of CDK4-cyclinD3 (P30281 whole entry partner): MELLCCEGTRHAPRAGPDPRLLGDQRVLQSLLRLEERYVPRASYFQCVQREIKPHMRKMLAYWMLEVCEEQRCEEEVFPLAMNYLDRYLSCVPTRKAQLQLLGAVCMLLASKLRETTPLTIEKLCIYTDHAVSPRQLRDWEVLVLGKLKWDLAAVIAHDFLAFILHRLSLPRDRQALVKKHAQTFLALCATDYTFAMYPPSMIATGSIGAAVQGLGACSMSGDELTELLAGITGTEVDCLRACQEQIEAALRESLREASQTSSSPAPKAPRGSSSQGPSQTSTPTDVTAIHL
# MY03A = MY03A (Homo sapiens (Human), UniProt Q8NEV4)
# [1] = biological target: ABL1(F317L)-phosphorylated (Homo sapiens (Human), UniProt P00519, F317L)
# ACVR1 = ACVR1 (Homo sapiens (Human), UniProt Q04771)
# DMPK = DMPK (Homo sapiens (Human), UniProt Q09013)
# Chain of DMPK (Q09013 whole entry): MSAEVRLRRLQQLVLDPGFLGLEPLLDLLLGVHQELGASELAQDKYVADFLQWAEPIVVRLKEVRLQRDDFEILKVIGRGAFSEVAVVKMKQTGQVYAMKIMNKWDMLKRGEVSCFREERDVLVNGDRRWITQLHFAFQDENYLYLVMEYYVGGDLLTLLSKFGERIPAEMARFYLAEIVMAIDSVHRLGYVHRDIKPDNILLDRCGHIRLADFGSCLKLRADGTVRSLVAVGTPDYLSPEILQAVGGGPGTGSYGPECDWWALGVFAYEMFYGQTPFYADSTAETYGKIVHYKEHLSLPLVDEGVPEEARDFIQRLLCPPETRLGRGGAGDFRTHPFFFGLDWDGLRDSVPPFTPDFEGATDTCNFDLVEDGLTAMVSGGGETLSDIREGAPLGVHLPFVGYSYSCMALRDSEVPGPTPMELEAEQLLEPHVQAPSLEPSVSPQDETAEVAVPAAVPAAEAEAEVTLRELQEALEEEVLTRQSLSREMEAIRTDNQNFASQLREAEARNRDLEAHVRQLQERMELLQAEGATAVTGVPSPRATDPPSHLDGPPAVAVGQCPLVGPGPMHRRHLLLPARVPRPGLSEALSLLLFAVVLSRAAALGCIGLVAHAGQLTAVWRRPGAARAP
# [2] = biological target: ABL1(Q252H)-phosphorylated (Homo sapiens (Human), UniProt P00519, Q252H)
# RIPK5 = RIPK5 (Homo sapiens (Human), UniProt Q6XUX3)
# EPHA4 = EPHA4 (Homo sapiens (Human), UniProt P54764)
# MELK = MELK (Homo sapiens (Human), UniProt Q14680)
# LIMK2 = LIMK2 (Homo sapiens (Human), UniProt P53671)
# Chain of LIMK2 (P53671 whole entry): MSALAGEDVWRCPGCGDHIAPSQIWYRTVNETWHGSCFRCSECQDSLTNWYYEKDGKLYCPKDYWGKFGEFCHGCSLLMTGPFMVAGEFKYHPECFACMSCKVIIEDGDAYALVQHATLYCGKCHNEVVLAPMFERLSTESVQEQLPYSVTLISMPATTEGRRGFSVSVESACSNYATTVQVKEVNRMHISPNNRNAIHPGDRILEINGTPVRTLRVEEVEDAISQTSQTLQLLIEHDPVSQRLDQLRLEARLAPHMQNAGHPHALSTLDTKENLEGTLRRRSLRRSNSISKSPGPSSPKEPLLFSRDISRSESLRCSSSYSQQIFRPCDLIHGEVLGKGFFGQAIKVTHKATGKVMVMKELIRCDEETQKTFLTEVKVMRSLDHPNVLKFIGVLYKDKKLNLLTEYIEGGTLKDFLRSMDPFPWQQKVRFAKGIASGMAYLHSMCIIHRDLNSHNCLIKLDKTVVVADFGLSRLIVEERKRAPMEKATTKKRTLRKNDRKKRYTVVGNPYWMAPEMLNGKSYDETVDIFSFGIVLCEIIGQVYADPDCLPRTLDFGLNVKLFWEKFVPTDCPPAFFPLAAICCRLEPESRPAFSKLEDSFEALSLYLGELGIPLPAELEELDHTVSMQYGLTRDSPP
structure (smiles),measurement,setting,value
"CN(C[C@H](Cc1ccccc1)OP(=O)(O)O)C(=O)c1cncc(C#Cc2cnn(C(F)F)c2)c1 [Example 19, (S)-1-(5-((1-(difluoromethyl)-1H-pyrazol-4-yl)ethynyl)-N-methylnicotinamido)-3-phenylpropan-2-yl dihydrogen phosphate]",remaining activity at 0.1 µM,GRK3,81%
same,remaining activity at 0.1 µM,ADCK3,100%
same,remaining activity at 0.1 µM,MARK3,97%
same,remaining activity at 0.1 µM,CLK3,93%
same,remaining activity at 0.1 µM,IKK-alpha,99%
same,remaining activity at 0.1 µM,PFCDPK1(P.falciparum),96%
same,remaining activity at 0.1 µM,CDC2L5,100%
same,remaining activity at 0.1 µM,PFPK5(P.falciparum),100%
same,remaining activity at 0.1 µM,PRP4,82%
same,remaining activity at 0.1 µM,PIK3CA,100%
same,remaining activity at 0.1 µM,IRAK1,86%
same,remaining activity at 0.1 µM,MYLK4,100%
same,remaining activity at 0.1 µM,CDK4-cyclinD3,100%
same,remaining activity at 0.1 µM,MY03A,93%
same,remaining activity at 0.1 µM,[1],88%
same,remaining activity at 0.1 µM,ACVR1,100%
same,remaining activity at 0.1 µM,DMPK,100%
same,remaining activity at 0.1 µM,[2],99%
same,remaining activity at 0.1 µM,RIPK5,96%
same,remaining activity at 0.1 µM,EPHA4,96%
same,remaining activity at 0.1 µM,MELK,83%
same,remaining activity at 0.1 µM,LIMK2,93%
"CN(C[C@@H](O)Cc1ccccc1)C(=O)c1cncc(C#Cc2cnn(C(F)F)c2)c1 [Example 2, (S)-5-((1-(difluoromethyl)-1H-pyrazol-4-yl)ethynyl)-N-(2-hydroxy-3-phenylpropyl)-N-methylnicotinamide]",remaining activity at 0.1 µM,GRK3; GRK3,82%
same,remaining activity at 0.1 µM,ADCK3; ADCK3,100%
same,remaining activity at 0.1 µM,MARK3; MARK3,98%
same,remaining activity at 0.1 µM,CLK3; CLK3,97%
same,remaining activity at 0.1 µM,IKK-alpha; IKK-alpha,100%
same,remaining activity at 0.1 µM,PFCDPK1(P.falciparum),95%
same,remaining activity at 0.1 µM,CDC2L5,100%
same,remaining activity at 0.1 µM,PFPK5(P.falciparum),90%
same,remaining activity at 0.1 µM,PRP4,89%
same,remaining activity at 0.1 µM,PIK3CA; PIK3CA,100%
same,remaining activity at 0.1 µM,IRAK1; IRAK1,91%
same,remaining activity at 0.1 µM,MYLK4; MYLK4,99%
same,remaining activity at 0.1 µM,CDK4-cyclinD3; CDK4-cyclinD3,100%
same,remaining activity at 0.1 µM,MY03A; MY03A,99%
same,remaining activity at 0.1 µM,[1]; ABL1(F317L)-phosphorylated,82%
same,remaining activity at 0.1 µM,ACVR1; ACVR1,100%
same,remaining activity at 0.1 µM,DMPK; DMPK,100%
same,remaining activity at 0.1 µM,[2]; ABL1(Q252H)-phosphorylated,99%
same,remaining activity at 0.1 µM,RIPK5; RIPK5,100%
same,remaining activity at 0.1 µM,EPHA4; EPHA4,97%
same,remaining activity at 0.1 µM,MELK; MELK,77%
same,remaining activity at 0.1 µM,LIMK2; LIMK2,95%
